“And” between values parts separate entries of the source, which are not always exact repeats. Identical values can stand only once. Like-named read-outs stand apart in the source and are kept apart here. Marks after values point to notes of the source that are not given here.
Key:
[1] = cited from earlier work
[2] = Phase 1 dose escalation: adverse events (CTCAE v4.0), DLT, MTD/RP2D; assay type: in vivo, human; settings: orally once daily with 3000 mg THU on days 1–6 and 8–13 of each 21-day cycle (dose level 8)
Method: FdCyd and THU were supplied by the NCI Division of Cancer Treatment and Diagnosis. Patients were administered both drugs orally in 21-day cycles, and dose escalation proceeded according to a traditional 3 + 3 design as per the dose escalation schema shown in Supplementary Table S1. […] Patients maintained a study diary to note any side effects or concurrent medications. The NCI Common Terminology Criteria for Adverse Events version 4.0 was used to grade adverse events. Tumor response was assessed by radiography at baseline and every 2 cycles thereafter and evaluated per RECIST version 1.1 [11]. Following determination of the maximum tolerated dose (MTD)/recommended phase 2 dose (RP2D), an additional 13 patients were enrolled on a RP2D expansion cohort for assessments of pharmacodynamic biomarkers in baseline and on-treatment tumor biopsies.
DLTs were defined as toxicities that were at least possibly related to FdCyd or THU within the first cycle of treatment and met one of the following criteria: grade ≥ 3 non-hematological toxicity (including grade 3 nausea, vomiting, or diarrhea only if refractory to standard supportive care; grade 3 electrolyte toxicities only if unable to be corrected to ≤ grade 1 within 24 h; and tumor pain only if refractory to analgesics); grade 4 thrombocytopenia; or grade 4 neutropenia lasting ≥ 5 days or febrile neutropenia. […]

[3] = Plasma pharmacokinetics by LC-MS/MS; assay type: in vivo, human; settings: for Tmax: read-out: FdCyd Tmax; for Vd/F: read-out: FdCyd Vz/F; for half-life: read-out: FdCyd t½ (converted); for AUC(0-inf): read-out: FdCyd AUC0-inf; for Cmax: read-out: FdCyd Cmax
Method: Blood specimens for PK analysis were collected on Cycle 1 Day 1 (C1D1) prior to THU administration and then at 15, 30, and 45 min and 1, 2, 3, 4, 5, and 6 h after THU administration, as well as on C1D2 and C1D3 prior to and 2 h after THU administration. Urine specimens for PK analysis were collected on C1D1 prior to treatment and then at every void from 0 to 24 h after THU administration. All specimens for PK analysis were processed and analyzed by LC-MS/MS as described previously, and Phoenix WinNonlin software was used for data analysis.

[4] = All FdCyd doses + THU 3000 mg oral (n=44), geom. mean (geom. SD)
[5] = All FdCyd doses + THU 6000 mg oral (n=11), geom. mean (geom. SD)
[6] = DL1: FdCyd 30 mg + THU 3000 mg oral (n=3), geom. mean (geom. SD)
[7] = DL2: FdCyd 60 mg + THU 3000 mg oral (n=4), geom. mean (geom. SD)
[8] = DL3: FdCyd 90 mg + THU 3000 mg oral (n=3), geom. mean (geom. SD)
[9] = DL4: FdCyd 120 mg + THU 3000 mg oral (n=3), geom. mean (geom. SD)
[10] = DL5-9: FdCyd 160 mg + THU 3000 mg oral (n=31), geom. mean (geom. SD)
[11] = DL10: FdCyd 60 mg + THU 6000 mg oral (n=8), geom. mean (geom. SD)
[12] = DL11: FdCyd 80 mg + THU 6000 mg oral (n=3), geom. mean (geom. SD)
[13] = Total, all dose levels (n=55), geom. mean (geom. SD)
[14] = human, plasma, oral, Total, all dose levels (n=55), geom. mean (geom. SD)
[15] = human, plasma, po, All FdCyd doses + THU 3000 mg oral (n=44), geom. mean (geom. SD)
[16] = human, plasma, po, All FdCyd doses + THU 6000 mg oral (n=11), geom. mean (geom. SD)
[17] = human, plasma, po, DL1: FdCyd 30 mg + THU 3000 mg oral (n=3), geom. mean (geom. SD)
[18] = human, plasma, po, DL2: FdCyd 60 mg + THU 3000 mg oral (n=4), geom. mean (geom. SD)
[19] = human, plasma, po, DL3: FdCyd 90 mg + THU 3000 mg oral (n=3), geom. mean (geom. SD)

Structure (SMILES): Nc1nc(=O)n([C@H]2C[C@H](O)[C@@H](CO)O2)cc1F [FdCyd, 5-fluoro-2’-deoxycytidine]
- FdCyd bioavailability, previously established [1]: 10%
- FdCyd clearance, previous reports ([1]; intravenously administered FdCyd with THU, ref previous reports): 142 mL/min/m^2
- Maximum tolerated dose / RP2D, FdCyd dose [2]: 160 mg
- FdCyd Cl/F [3, 4]: 123 L/h and 123 (2.37)^c L/h
- FdCyd Cmax/Dose [3, 4]: 4.0 (2.2)^b µg/L / mg
- FdCyd Cl/F [3, 5]: 85.7 (1.65)^c L/h
- FdCyd Cmax/Dose [3, 5]: 6.6 (1.6)^b µg/L / mg
- FdCyd Cl/F [3, 6]: 212 (2.77) L/h
- FdCyd Cmax/Dose [3, 6]: 3.0 (2.3) µg/L / mg
- FdCyd Cl/F [3, 7]: 95.7 (3.08) L/h
- FdCyd Cmax/Dose [3, 7]: 4.9 (3.0) µg/L / mg
- FdCyd Cl/F [3, 8]: 84.7 (1.91) L/h
- FdCyd Cmax/Dose [3, 8]: 5.8 (1.8) µg/L / mg
- FdCyd AUC0-inf [3, 9]: 1.59 (2.43) mg/L•h
- FdCyd Cl/F [3, 9]: 75.6 (2.43) L/h
- FdCyd Cmax/Dose [3, 9]: 7.4 (2.0) µg/L / mg
- FdCyd Cl/F [3, 10]: 133 (2.35) L/h
- FdCyd Cmax/Dose [3, 10]: 3.6 (2.1) µg/L / mg
- FdCyd Cl/F [3, 11]: 96.0 (1.71) L/h
- FdCyd Cmax/Dose [3, 11]: 6.4 (1.6) µg/L / mg
- FdCyd Cl/F [3, 12]: 65.8 (1.41) L/h
- FdCyd Cmax/Dose [3, 12]: 7.1 (1.6) µg/L / mg
- FdCyd Cl/F [3, 13]: 115 (2.26) L/h
- FdCyd Cmax/Dose [3, 13]: 4.4 (2.1) µg/L / mg
- FdCyd peak concentrations at the oral RP2D (160 mg) relative to those after the IV FdCyd RP2D of 100 mg/m^2 ([3]; comparison with ref 8): approximately 20%
- Tmax [3, 14]: ~72 min
- Vd/F [3, 14]: 98 L
- bioavailability ([3]; human, plasma, oral, from previous clearance (142 mL/min/m^2) vs current Cl/F (123 L/h), read-out: FdCyd bioavailability in the current study): ~12%
- Tmax [3, 15]: 78 min
- Vd/F [3, 15]: 111 L
- half-life [3, 15]: 36 min
- Tmax [3, 16]: 54 min
- Vd/F [3, 16]: 56 L
- half-life [3, 16]: 30 min
- AUC(0-inf) [3, 17]: 140 ng·h/mL
- Cmax [3, 17]: 90 ng/mL
- Tmax [3, 17]: 54 min
- Vd/F [3, 17]: 187 L
- half-life [3, 17]: 36 min
- AUC(0-inf) [3, 18]: 630 ng·h/mL
- Cmax [3, 18]: 290 ng/mL
- Tmax [3, 18]: 60 min
- Vd/F [3, 18]: 90 L
- half-life [3, 18]: 42 min
- AUC(0-inf) [3, 19]: 1060 ng·h/mL
- Cmax [3, 19]: 530 ng/mL
- Tmax [3, 19]: 90 min
- Vd/F [3, 19]: 139 L
- half-life [3, 19]: 66 min
